From patent publication US12653851B2, “Isolated recombinant oncolytic adenoviruses, pharmaceutical compositions, and uses thereof for drugs for treatment of tumors and/or cancers” (HANGZHOU CONVERD CO., LTD., priority 2017, dated 2026)
Entries after “also recorded” stand apart in the source; their conditions may differ.

Experiments:
[1] = test system: hPDL1 mRNA (human PDL1 mRNA); experiment: inhibitory effect of shPDL1 on hPDL1 mRNA, Real-time PCR; type: cell-based; conditions: U251 and H460 cells, 24 h and 48 h after transfection, compared to control shRNA
Method: U251 and H460 cells were seeded in 12-well plates at 2×10^5 cells per well, respectively, 12 hours in advance. U251 and H460 cells in each well were transfected with 1.6 μg shRNA expression vector DNA in a ratio to 4 μl lipofectamin 2000. Two cell samples were taken over 24 hours and 48 hours, respectively. After the total RNA was extracted and reverse transcription was performed, the expression level of human PDL1 mRNA in cells was detected by Real-time PCR with the mRNA level of GAPDH gene as a control.

[2] = test system: human PDL1 protein fused with 3×FLAG tag; experiment: inhibitory effect of shPDL1 on over-expressed hPDL1 protein in 293T cells, Western blot; type: cell-based; conditions: 293T cells co-transfected 1:1 with pcDNA3.3-hPDL1-3×FLAG, 48 hours
Method: 293T cells were transiently transfected with plasmids pSGU6/GFP/Neo-shPDL1-NC, pSGU6/GFP/Neo-shPDL1-1, pSGU6/GFP/Neo-shPDL1-2 and pSGU6/GFP/Neo-shPDL1-3 with pcDNA3.3-hPDL1-3×FLAG at an equimolar ratio (1:1), respectively, wherein plasmid pcDNA3.3-hPDL1-3×FLAG expresses the human PDL1 protein fused with 3×FLAG tag. Cell samples were collected after 48 hours, and Western blot analysis was performed after cell lysis.

shPDL1-#1 (GGGAAATGGAGGATAAGAACATTCAAGAGATGTTCTTATCCTCCATTTCCCTT; expressed or natural sequence)
inhibitory effect on hPDL1 mRNA [1]: inhibitory effect; also recorded: most significant inhibitory effect | over-expressed hPDL1 protein [2]: significantly reduce

shPDL1-#2: shRNA (coding sequence SEQ ID NO. 19) targeting region 430-452 of human PDL1 mRNA (DNA GGATCCAGTCACCTCTGAACATTCAAGAGATGTTCAGAGGTGACTGGATCCTT)
inhibitory effect on hPDL1 mRNA [1]: inhibitory effect

shPDL1-#3: shRNA (coding sequence SEQ ID NO. 22) targeting region 589-611 of human PDL1 mRNA (DNA GAGAATCAACACAACAACTAATTCAAGAGATTAGTTGTTGTGTTGATTCTCTT)
inhibitory effect on hPDL1 mRNA [1]: inhibitory effect
